Values of other authors, collected in patent US20040208833A1, “Novel fluticasone formulations” (Elan Pharma International Ltd., priority 2003, published 2004).

Legend:
[1] = not given; remark: listed apart in the source
[2] = oral dosing of radiolabeled drug

CCC(=O)O[C@]1(C(=O)SCF)[C@H](C)C[C@H]2[C@@H]3C[C@H](F)C4=CC(=O)C=C[C@]4(C)[C@@]3(F)[C@@H](O)C[C@@]21C [Fluticasone propionate, S-fluoromethyl-6α,9-difluoro-11β-hydroxy-16α-methyl-3-oxoandrosta-1,4-diene-17β-carbothioate, 17-propionate]
solubility in 95% ethanol (95% ethanol): slightly soluble
solubility in dimethyl sulfoxide (dimethyl sulfoxide): freely soluble
solubility in dimethylformamide (dimethylformamide): freely soluble
solubility in methanol (methanol): slightly soluble
solubility in water (water): practically insoluble
oral systemic bioavailability ([1]; oral dosing of labeled and unlabeled conventional fluticasone propionate): < 1%
absorption [1, 2]: low
extraction from plasma [1, 2]: highly extracted from plasma
oral bioavailability [1, 2]: neglible
